Data taken from EP0745595A1, “3-(3-Aryloxyphenyl)-1-(substituted methyl)-s-triazine-2,4,6-oxo or thiotrione herbicidal agents” (American Cyanamid Company, priority 1995, dated 1996).

Key:
Format in all cases: in vivo
[1] = system: GLYCINE MAX(L) MERR. CV. WILLIAMS; assay: Postemergence herbicidal evaluation, GLXMAW (Soybean, Williams); design: key to GLXMAW rating / Herbicidal effect rating, GLXMAW / GLXMAW: 0-9 visual rating scale vs untreated control
Summary of the method: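 Soybean seedlings (Williams) were raised in jiffy flats for roughly two weeks, then sprayed postemergence through a nozzle at 40 psi with test compound dispersed in 50/50 acetone/water containing 0.5% TWEEN®20. Treated plants were kept on greenhouse benches under normal care and visually rated on a 0-9 scale four to five weeks later.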

[2] = system: ORYZA SATIVA, L. TEBONNET; assay: Postemergence herbicidal evaluation, ORYSAT (Rice, Tebonnet); design: key: 0-9 visual rating scale vs untreated control
Method: In the tests, seedling plants are grown in jiffy flats for about two weeks. The test compounds are dispersed in 50/50 acetone/water mixtures containing 0.5% TWEEN®20, a polyoxyethylene sorbitan monolaurate surfactant of Atlas Chemical Industries, in sufficient quantities to provide the equivalent of about 0.125 kg to 0.500 kg per hectare of active compound when applied to the plants through a spray nozzle operating at 40 psi for a predetermined time. After spraying, the plants are placed on greenhouse benches and are cared for in the usual manner, commensurate with conventional greenhouse practices. From four to five weeks after treatment, the seedling plants are examined and rated according to the rating system set forth below. Where more than one test is involved for a given compound, the data are averaged.
Plant species employed in these evaluations are reported by header abbreviation, common name and scientific name.
Results of herbicide evaluation are expressed on a rating scale (0-9). The scale is based upon a visual observation of plant stand, vigor, malformation, size, chlorosis and overall plant appearance as compared with a control.

[3] = system: GLYCINE MAX(L) MERR. CV. WILLIAMS; assay: Preemergence herbicidal evaluation, GLXMAW (Soybean, Williams); conditions: for GLXMAW herbicidal rating: rated four to five weeks after treatment
Summary of the method: (§1)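 Preemergence, greenhouse: seed + potting soil sown on ~1 inch soil in cups; aqueous acetone spray, ~0.125–0.50 kg/ha equivalent; rated 0-9 vs control at 4–5 wk.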

ZEA MAYS L. = assay: Preemergence herbicidal evaluation, ZEAMX (Corn, Field)
Summary of the method: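 Corn (Zea mays) seeds were mixed with potting soil and planted on about one inch of soil in pint cups, then treated preemergence. Cups were kept on greenhouse benches, watered and maintained conventionally, and after four to five weeks were visually rated on a 0-9 scale versus an untreated control.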

[4] = system: CYPERUS SEROTINUS, ROTTB.; assay: Preemergence weed control under flooded paddy conditions, CYPSE (Flatsedge); conditions: pre-weed
Summary of the method: (§2)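 Seeds or propagules sown in top 0.5 cm of silt loam in undrained containers, flooded 1.5 to 3 cm throughout. Compounds in aqueous/acetone 50/50 v/v pipetted into flood water at about 0.5, 0.25, 0.125 and 0.063 kg/ha. Visual 0-9 rating versus control after three to four weeks in greenhouse.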

[…], PRESL. = Preemergence weed control under flooded paddy conditions, MOOVA (Monochoria); conditions: for MOOVA: pre-weed; for Herbicidal effect rating, MOOVA: preemergence, 3-4 weeks after treatment
Summary of the method: as §2

SAGITTARIA PYGMAEA, L. = assay: Preemergence weed control under flooded paddy conditions, SAGPY (Arrowhead (Pygmaea)); conditions: pre-weed
Summary of the method: as §2

CHENOPODIUM ALBUM, L. = assay: Preemergence herbicidal evaluation, CHEAL (Lambsquarters, Common); conditions: for CHEAL herbicidal rating: rated four to five weeks after treatment
Summary of the method: as §1

CYPERUS IRIA = assay: Preemergence weed control under flooded paddy conditions, CYPIR (Rice Flatsedge); conditions: for Herbicidal effect rating, CYPIR: preemergence, 3-4 weeks after treatment; for CYPIR: pre-weed
Summary of the method: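 Seeds or propagating organs of rice flatsedge were planted in the top 0.5 cm of silt loam soil in 32 oz. plastic containers, 10.5 cm across and without drainage holes. Water was kept 1.5 to 3 cm above the soil throughout. Treated containers were kept on greenhouse benches, and herbicidal effect was visually rated on a 0-9 scale against a control.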

Cn1c(=O)[nH]c(=O)n(-c2cc(Oc3c(F)cc(C(F)(F)F)cc3Cl)ccc2F)c1=O [C, reference compound]
5.0: Herbicidal effect rating, GLXMAW ([1]; 0.250 kg/ha)
3.0: Herbicidal effect rating, ORYSAT ([2]; 0.031 kg/ha)
0.0: GLXMAW ([3]; Rate 0.031 kg/ha) | GLXMAW ([3]; Rate 0.063 kg/ha) | GLXMAW ([3]; Rate 0.125 kg/ha) | GLXMAW ([3]; Rate 0.250 kg/ha) | ZEAMX (ZEA MAYS L.; Rate 0.031 kg/ha) | ZEAMX (ZEA MAYS L.; Rate 0.063 kg/ha) | ZEAMX (ZEA MAYS L.; Rate 0.125 kg/ha) | ZEAMX (ZEA MAYS L.; Rate 0.250 kg/ha) | CYPSE ([4]; Rate 0.031 kg/ha) | CYPSE ([4]; Rate 0.063 kg/ha) | CYPSE ([4]; Rate 0.125 kg/ha) | CYPSE ([4]; Rate 0.250 kg/ha) | SAGPY (SAGITTARIA PYGMAEA, L.; Rate 0.031 kg/ha) | SAGPY (SAGITTARIA PYGMAEA, L.; Rate 0.063 kg/ha) | SAGPY (SAGITTARIA PYGMAEA, L.; Rate 0.125 kg/ha) | SAGPY (SAGITTARIA PYGMAEA, L.; Rate 0.250 kg/ha)
9.0: MOOVA ([…], PRESL.; Rate 0.031 kg/ha) | MOOVA ([…], PRESL.; Rate 0.063 kg/ha) | MOOVA ([…], PRESL.; Rate 0.125 kg/ha) | MOOVA ([…], PRESL.; Rate 0.250 kg/ha)
4.5: Herbicidal effect rating, GLXMAW ([1]; 0.063 kg/ha) | Herbicidal effect rating, GLXMAW ([1]; 0.125 kg/ha)
3.5: Herbicidal effect rating, GLXMAW ([1]; 0.031 kg/ha) | Herbicidal effect rating, ORYSAT ([2]; 0.063 kg/ha) | Herbicidal effect rating, ORYSAT ([2]; 0.125 kg/ha) | Herbicidal effect rating, ORYSAT ([2]; 0.250 kg/ha)

COC(=O)Cn1c(=O)n(C)c(=O)n(-c2cc(Oc3ccc(C(F)(F)F)cc3Cl)ccc2Cl)c1=O [Compound 39, Methyl 3-{[2-chloro-5-(2-chloro-α,α,α-trifluoro-p-tolyl)oxy]phenyl}tetrahydro-5-methyl-2,4,6-trioxo-s-triazine-1(2H)-acetate]
2.0: GLXMAW herbicidal rating ([3]; Rate 0.125 kg/ha) | GLXMAW herbicidal rating ([3]; Rate 0.250 kg/ha) | GLXMAW herbicidal rating ([3]; Rate 0.500 kg/ha)
3.3: ORYSAT ([2]; Rate 0.032 kg/ha)
5.3: GLXMAW ([1]; Rate 0.063 kg/ha)
6.3: GLXMAW ([1]; Rate 0.250 kg/ha)
4.8: ORYSAT ([2]; Rate 0.063 kg/ha) | ORYSAT ([2]; Rate 0.250 kg/ha)
9.0: CHEAL (CHENOPODIUM ALBUM, L.; Rate 0.063 kg/ha) | CHEAL (CHENOPODIUM ALBUM, L.; Rate 0.125 kg/ha) | CHEAL herbicidal rating (CHENOPODIUM ALBUM, L.; Rate 0.125 kg/ha) | CHEAL (CHENOPODIUM ALBUM, L.; Rate 0.250 kg/ha) | CHEAL herbicidal rating (CHENOPODIUM ALBUM, L.; Rate 0.250 kg/ha) | CHEAL (CHENOPODIUM ALBUM, L.; Rate 0.500 kg/ha) | CHEAL herbicidal rating (CHENOPODIUM ALBUM, L.; Rate 0.500 kg/ha) | Herbicidal effect rating, CYPIR (CYPERUS IRIA; 0.063 kg/ha) | Herbicidal effect rating, CYPIR (CYPERUS IRIA; 0.125 kg/ha) | Herbicidal effect rating, CYPIR (CYPERUS IRIA; 0.250 kg/ha) | Herbicidal effect rating, CYPIR (CYPERUS IRIA; 0.500 kg/ha) | CYPIR (CYPERUS IRIA; Rate 0.031 kg/ha) | CYPIR (CYPERUS IRIA; Rate 0.063 kg/ha) | CYPIR (CYPERUS IRIA; Rate 0.125 kg/ha) | CYPIR (CYPERUS IRIA; Rate 0.250 kg/ha) | Herbicidal effect rating, MOOVA ([…], PRESL.; 0.063 kg/ha) | Herbicidal effect rating, MOOVA ([…], PRESL.; 0.125 kg/ha) | Herbicidal effect rating, MOOVA ([…], PRESL.; 0.250 kg/ha) | Herbicidal effect rating, MOOVA ([…], PRESL.; 0.500 kg/ha) | MOOVA ([…], PRESL.; Rate 0.031 kg/ha) | MOOVA ([…], PRESL.; Rate 0.063 kg/ha) | MOOVA ([…], PRESL.; Rate 0.125 kg/ha) | MOOVA ([…], PRESL.; Rate 0.250 kg/ha)
5.5: GLXMAW ([1]; Rate 0.125 kg/ha)
4.3: ORYSAT ([2]; Rate 0.125 kg/ha)
3.8: GLXMAW ([1]; Rate 0.016 kg/ha)
2.3: ORYSAT ([2]; Rate 0.016 kg/ha)
7.0: GLXMAW ([1]; Rate 0.500 kg/ha)
4.5: GLXMAW ([1]; Rate 0.032 kg/ha) | ORYSAT ([2]; Rate 0.500 kg/ha)
